Data taken from ChEMBL document CHEMBL1681692, “Identification of new GATA4-small molecule inhibitors by structure-based virtual screening” (Bioorg Med Chem, 2011).
Activity calls are given as the source filed them. The rule behind the calls is not given here.

How the values were obtained:
[1] = biological target: Transcription factor GATA-4 (Homo sapiens) (UniProt P43694); test: Inhibition of GATA4-DNA interaction in HEK293 nuclear extract at 50 uM after 15 mins by EMSA assay; type: cell-free
[2] = biological target: Transcription factor GATA-4 (Mus musculus) (UniProt Q08369); test: Inhibition of GATA4 in mouse C2C12 cells assessed as myoblast differentiation to myotubes at 100 uM after 48 hrs by immunofluorescence assay in presence of 0.5% FBS relative to control; type: cell-based
HeLa [3] = test: Cytotoxicity in human HeLa cells assessed as cell death upto 150 uM; type: cell-based
[4] = biological target: T1, T-box transcription factor TBX5 (Homo sapiens) (UniProt Q99593); test: Effect on Tbx5 in HEK293 nuclear extract at 50 uM after 15 mins by EMSA assay
T1 sequence (whole entry): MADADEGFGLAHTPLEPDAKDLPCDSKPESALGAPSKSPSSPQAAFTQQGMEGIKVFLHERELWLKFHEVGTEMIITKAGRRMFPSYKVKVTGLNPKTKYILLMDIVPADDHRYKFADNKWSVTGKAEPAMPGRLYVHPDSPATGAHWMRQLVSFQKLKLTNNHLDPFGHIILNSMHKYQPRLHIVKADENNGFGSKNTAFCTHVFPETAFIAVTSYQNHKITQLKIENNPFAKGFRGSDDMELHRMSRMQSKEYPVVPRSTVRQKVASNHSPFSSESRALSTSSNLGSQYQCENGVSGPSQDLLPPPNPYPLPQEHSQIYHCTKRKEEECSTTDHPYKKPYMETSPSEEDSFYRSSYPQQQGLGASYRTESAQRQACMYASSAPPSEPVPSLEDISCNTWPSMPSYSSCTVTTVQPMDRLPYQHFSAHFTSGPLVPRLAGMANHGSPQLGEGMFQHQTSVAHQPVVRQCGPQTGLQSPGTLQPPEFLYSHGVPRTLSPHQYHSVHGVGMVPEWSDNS

HeLa [5] = test: Cytotoxicity in human HeLa cells assessed as effect on cell proliferation upto 150 uM; type: cell-based
[6] = biological target: Transcription factor GATA-4 (Homo sapiens) (UniProt P43694); test: Inhibition of GATA4-DNA interaction in HEK293 nuclear extract at 150 uM after 15 mins by EMSA assay; type: cell-free
[7] = biological target: Transcription factor GATA-4 (Homo sapiens) (UniProt P43694); test: Inhibition of GATA4- mediated BNP promoter activation in HeLa cells at 100 uM after 24 hrs by luciferase reporter gene assay; type: cell-based
C2C12 [8] = test: Cytotoxicity in mouse C2C12 cells assessed as effect on cell proliferation upto 150 uM; type: cell-based
[9] = biological target: Transcription factor GATA-4 (Homo sapiens) (UniProt P43694); test: Inhibition of GATA4-DNA interaction in HEK293 nuclear extract at 50 to 150 uM after 15 mins by EMSA assay
[10] = biological target: Transcription factor GATA-4 (Mus musculus) (UniProt Q08369); test: Inhibition of GATA4 in mouse C2C12 cells assessed as myoblast differentiation to myotubes at 100 uM after 48 hrs by immunofluorescence assay in presence of 20 % FBS relative to control; type: cell-based
HeLa [11] = test: Drug uptake in human HeLa cells after 24 hrs; type: ADME, cell-based
[12] = biological target: T2, Nuclear factor of activated T-cells, cytoplasmic 1 (Homo sapiens) (UniProt O95644); test: Effect on NFATc1 in HEK293 nuclear extract at 50 uM after 15 mins by EMSA assay
T2 sequence (whole entry): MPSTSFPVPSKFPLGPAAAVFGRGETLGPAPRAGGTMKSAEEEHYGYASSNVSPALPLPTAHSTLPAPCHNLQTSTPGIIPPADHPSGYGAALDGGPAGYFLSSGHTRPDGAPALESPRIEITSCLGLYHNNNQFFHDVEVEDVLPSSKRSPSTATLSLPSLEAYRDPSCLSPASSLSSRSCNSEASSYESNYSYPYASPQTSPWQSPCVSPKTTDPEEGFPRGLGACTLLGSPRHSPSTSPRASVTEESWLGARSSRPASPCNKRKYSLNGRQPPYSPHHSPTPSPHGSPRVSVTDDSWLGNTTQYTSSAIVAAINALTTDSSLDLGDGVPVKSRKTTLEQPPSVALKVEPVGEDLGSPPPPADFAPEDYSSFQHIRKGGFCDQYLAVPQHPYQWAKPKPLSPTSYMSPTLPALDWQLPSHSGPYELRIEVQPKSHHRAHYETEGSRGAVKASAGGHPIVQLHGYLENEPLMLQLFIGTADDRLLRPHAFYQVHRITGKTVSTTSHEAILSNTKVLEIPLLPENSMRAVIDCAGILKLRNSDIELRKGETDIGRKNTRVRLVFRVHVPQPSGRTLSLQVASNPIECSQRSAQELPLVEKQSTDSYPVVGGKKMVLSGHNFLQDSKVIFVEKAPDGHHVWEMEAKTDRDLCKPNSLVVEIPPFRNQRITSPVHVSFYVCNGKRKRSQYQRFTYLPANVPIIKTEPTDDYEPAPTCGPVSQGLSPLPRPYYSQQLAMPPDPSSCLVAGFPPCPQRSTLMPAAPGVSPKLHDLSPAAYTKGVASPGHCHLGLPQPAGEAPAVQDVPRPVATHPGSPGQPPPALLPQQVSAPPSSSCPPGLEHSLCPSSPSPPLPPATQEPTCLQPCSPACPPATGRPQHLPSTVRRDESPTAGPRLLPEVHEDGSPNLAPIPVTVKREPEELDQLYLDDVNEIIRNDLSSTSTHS

[13] = biological target: Transcription factor GATA-4 (Mus musculus) (UniProt Q08369); test: Inhibition of GATA4- DNA interaction in mouse C2C12 cells at 100 uM after 24 hrs by EMSA assay; type: cell-based
C2C12 [14] = test: Cytotoxicity in mouse C2C12 cells assessed as cell death upto 150 uM; type: cell-based
[15] = Lipophilicity, log P of compound; type: physicochemical; details: octanol/water
HEK293 [16] = test: Cytotoxicity in human HEK293 cells assessed as cell death upto 150 uM; type: cell-based
HEK293 [17] = test: Cytotoxicity in human HEK293 cells assessed as effect on cell proliferation upto 150 uM; type: cell-based
[18] = biological target: Transcription factor GATA-4 (Homo sapiens) (UniProt P43694); test: Inhibition of GATA4-DNA interaction in HEK293 nuclear extract at 100 uM after 15 mins by EMSA assay; type: cell-free

Chain of Transcription factor GATA-4 (Mus musculus) (Q08369 whole entry): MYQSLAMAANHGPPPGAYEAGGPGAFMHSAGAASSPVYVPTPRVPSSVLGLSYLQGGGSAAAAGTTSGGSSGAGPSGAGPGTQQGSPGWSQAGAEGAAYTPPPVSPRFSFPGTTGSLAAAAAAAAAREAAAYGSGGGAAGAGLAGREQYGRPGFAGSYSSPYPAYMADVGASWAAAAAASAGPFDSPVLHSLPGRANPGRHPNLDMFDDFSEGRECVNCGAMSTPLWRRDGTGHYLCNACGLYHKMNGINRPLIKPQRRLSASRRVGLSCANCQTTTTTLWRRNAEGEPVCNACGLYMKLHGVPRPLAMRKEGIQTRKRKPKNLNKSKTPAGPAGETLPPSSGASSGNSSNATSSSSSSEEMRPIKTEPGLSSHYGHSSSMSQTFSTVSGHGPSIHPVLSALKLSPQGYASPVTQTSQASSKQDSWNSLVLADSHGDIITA
Chain of Transcription factor GATA-4 (Homo sapiens) (P43694 whole entry): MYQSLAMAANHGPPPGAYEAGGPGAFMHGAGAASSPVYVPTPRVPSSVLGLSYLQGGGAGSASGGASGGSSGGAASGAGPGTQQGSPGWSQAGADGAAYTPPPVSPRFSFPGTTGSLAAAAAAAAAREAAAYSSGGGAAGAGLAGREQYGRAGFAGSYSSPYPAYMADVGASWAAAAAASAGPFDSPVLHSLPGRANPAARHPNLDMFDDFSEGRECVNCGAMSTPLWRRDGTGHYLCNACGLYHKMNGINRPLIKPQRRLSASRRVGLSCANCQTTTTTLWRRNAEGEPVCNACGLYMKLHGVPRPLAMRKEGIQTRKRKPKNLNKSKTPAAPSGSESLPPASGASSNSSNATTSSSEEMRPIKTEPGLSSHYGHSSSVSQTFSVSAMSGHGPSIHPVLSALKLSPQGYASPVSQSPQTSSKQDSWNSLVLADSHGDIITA

inhibition [1] | inhibition [2] | Activity [4] | inhibition [6] | inhibition [7] | inhibition [9] | inhibition [10] | Drug uptake (HeLa [11]) | Activity [12] | inhibition [13] | logP [15] | inhibition [18] | SMILES | Activity (HeLa [3]) | Activity (HeLa [5]) | Activity (C2C12 [8]) | Activity (C2C12 [14]) | Activity (HEK293 [16]) | Activity (HEK293 [17])
Active | inactive | inactive | 70% | 35% | Dose-dependent effect | inactive | Active | inactive | Active | < 0 | Active | Cc1cc(C(=O)O)c(C(=O)O)c(O)n1 | Non-toxic | Non-toxic | Non-toxic | Non-toxic | Non-toxic | Non-toxic
Active | Active | inactive | 70% | inactive | Dose-dependent effect | Active | Not Active | inactive | Active | < 0 | Active | O=C(O)c1cc(C(=O)O)cc(S(=O)(=O)NCCO)c1 | Non-toxic | Non-toxic | Non-toxic | Non-toxic | Non-toxic | Non-toxic
Active | inactive | inactive | 70% | 16% | Dose-dependent effect | inactive | Active | inactive | Active | < 0 | Active | NC(=O)c1ncn([C@@H]2O[C@H](COP(=O)(O)O)[C@@H](O)[C@H]2O)n1 [RIBAVIRIN MONOPHOSPHATE] | Non-toxic | Non-toxic | Non-toxic | Non-toxic | Non-toxic | Non-toxic
60% | Active | inactive |  | 35% | Dose-dependent effect | Active | Active | inactive | Active | < 0 | Active | O=C(O)CC(Cc1ccc2c(c1)OCO2)C(=O)O (stereo unspecified) | Non-toxic | Non-toxic | Non-toxic | Non-toxic | Non-toxic | Non-toxic
